Test results as given in ChEMBL document CHEMBL4476874, “Compounds for the modulation of myc activity” (2018).

Assays:
[1] = target: Myc proto-oncogene protein (Homo sapiens, UniProt P01106); experiment: Inhibition of human c-Myc assessed as reduction in c-Myc/Max/Ebox DNA complex formation using pre-formed complex of c-Myc and biotinylated DNA containing single Ebox-sequence followed by compound addition and further addition of his6-tagged c-Max and incubated for 2 hrs by AlphaScreen assay
NCI-H2171 = experiment: Antiproliferative activity against human NCI-H2171 cells after 72 hrs by ATPlite assay; type: functional, cell-based; details: NCI-H2171, 72 h

Chain of Myc proto-oncogene protein (P01106 whole entry): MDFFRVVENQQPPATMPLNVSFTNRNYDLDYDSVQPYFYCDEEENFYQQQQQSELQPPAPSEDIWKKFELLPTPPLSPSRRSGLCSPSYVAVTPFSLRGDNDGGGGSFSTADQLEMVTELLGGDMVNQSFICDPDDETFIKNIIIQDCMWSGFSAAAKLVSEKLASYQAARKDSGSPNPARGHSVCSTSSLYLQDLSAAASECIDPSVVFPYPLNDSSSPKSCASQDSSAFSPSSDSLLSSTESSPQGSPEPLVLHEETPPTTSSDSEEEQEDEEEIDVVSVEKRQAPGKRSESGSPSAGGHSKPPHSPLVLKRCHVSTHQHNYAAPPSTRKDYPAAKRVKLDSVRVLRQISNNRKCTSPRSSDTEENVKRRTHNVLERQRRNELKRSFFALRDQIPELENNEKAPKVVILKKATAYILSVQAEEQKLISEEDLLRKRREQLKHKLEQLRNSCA

IC50 [1] [nM] | IC50 (NCI-H2171) [nM] | SMILES
300 to 1000 | < 300 | COCCNCCC(=O)Nc1sc2c(c1-c1nc3ccc(-c4ccnc(OC)c4)cc3s1)CCNC2
> 10000 | < 300 | COCCNCCC(=O)Nc1sc2c(c1-c1nc3ccc(-c4ccncc4C)cc3s1)CCNC2
< 300 | 300 to 1000 | COCCNCCC(=O)Nc1sc2c(c1-c1nc3cc(-c4cncnc4)ccc3s1)CCNC2
300 to 1000 | < 300 | COCCNCCC(=O)Nc1sc2c(c1-c1nc3cc(-c4cnn(C)c4C)ccc3s1)CCNC2
300 to 1000 | < 300 | COCCNCCC(=O)Nc1sc2c(c1-c1nc3ccc(-c4cnc(N)nc4)cc3s1)CCNC2
300 to 1000 | < 300 | COCCNCCC(=O)Nc1sc2c(c1-c1nc3cc(-c4ccnc(C)c4)ccc3s1)CCNC2
1000 to 10000 | < 300 | COCCNCCC(=O)Nc1sc2c(c1-c1nc3cc(-c4cnccc4C)ccc3s1)CCNC2
300 to 1000 | < 300 | COCCNCCC(=O)Nc1sc2c(c1-c1nc3cc(-c4ccc(C)nc4)ccc3s1)CCNC2
< 300 | < 300 | CCc1cccc2sc(-c3c(NC(=O)CCNCCOC)sc4c3CCNC4)nc12
1000 to 10000 | < 300 | COCCNCCC(=O)Nc1sc2c(c1-c1nc3cc(-c4cccnc4C)ccc3s1)CCNC2
300 to 1000 | < 300 | COCCNCCC(=O)Nc1sc2c(c1-c1nc3ccc(-c4ccc(C)nc4)cc3s1)CCNC2
1000 to 10000 | 300 to 1000 | CCOc1ncccc1-c1ccc2sc(-c3c(NC(=O)CCNCCOC)sc4c3CCNC4)nc2c1
300 to 1000 | < 300 | COCCNCCC(=O)Nc1sc2c(c1-c1nc3ccc(-c4ccnc(C)c4)cc3s1)CCNC2
1000 to 10000 | < 300 | COCCNCCC(=O)Nc1sc2c(c1-c1nc3cc(-c4ccncc4C)ccc3s1)CCNC2
300 to 1000 | < 300 | COCCNCCC(=O)Nc1sc2c(c1-c1nc3cc(-c4ccc(F)nc4F)ccc3s1)CCNC2
300 to 1000 | < 300 | COCCNCCC(=O)Nc1sc2c(c1-c1nc3cc(-c4ccnn4C)ccc3s1)CCNC2
> 10000 | 300 to 1000 | COCCNCCC(=O)Nc1sc2c(c1-c1nc3c(N4CCOCC4)cccc3s1)CCNC2
1000 to 10000 | < 300 | COCCNCCC(=O)Nc1sc2c(c1-c1nc3cc(-c4ccccc4NS(C)(=O)=O)ccc3s1)CCNC2
< 300 | 300 to 1000 | COCCNCCC(=O)Nc1sc2c(c1-c1nc3cc(-c4ccc(O)nc4)ccc3s1)CCNC2
300 to 1000 | < 300 | COCCNCCC(=O)Nc1sc2c(c1-c1nc3ccc(-c4ccnc(N)c4)cc3s1)CCNC2
< 300 | 300 to 1000 | COCCNCCC(=O)Nc1sc2c(c1-c1nc3cc(-c4ccc(F)nc4)ccc3s1)CCNC2
300 to 1000 | < 300 | COCCNCCC(=O)Nc1sc2c(c1-c1nc3cc(OC4CCOCC4)ccc3s1)CCNC2

IC50 [1] [nM] | IC50 (NCI-H2171) [nM] | SMILES
300 to 1000 | 300 to 1000 | COCCNCCC(=O)Nc1sc2c(c1-c1nc3cc(-c4cncc(C#N)c4)ccc3s1)CCNC2
300 to 1000 | < 300 | COCCNCCC(=O)Nc1sc2c(c1-c1nc3ccc(-c4cnn(C)c4C)cc3s1)CCNC2
300 to 1000 | < 300 | COCCNCCC(=O)Nc1sc2c(c1-c1nc3cc(-c4cccc(C#N)c4)ccc3s1)CCNC2
300 to 1000 | < 300 | COCCNCCC(=O)Nc1sc2c(c1-c1nc3ccc(-c4cncc(N)c4)cc3s1)CCNC2
300 to 1000 | < 300 | COCCNCCC(=O)Nc1sc2c(c1-c1nc3ccc(-c4c[nH]nc4C)cc3s1)CCNC2
< 300 | < 300 | COCCNCCC(=O)Nc1sc2c(c1-c1nc3cc(-c4ccc5ncnn5c4)ccc3s1)CCNC2
300 to 1000 | < 300 | COCCNCCC(=O)Nc1sc2c(c1-c1nc3cc(-c4cncc(C)c4)ccc3s1)CCNC2
1000 to 10000 | < 300 | COCCNCCC(=O)Nc1sc2c(c1-c1nc3cc(-c4cnn(Cc5ccccc5)c4)ccc3s1)CCNC2
300 to 1000 | < 300 | COCCNCCC(=O)Nc1sc2c(c1-c1nc3ccc(-c4cncnc4)cc3s1)CCNC2
1000 to 10000 | < 300 | COCCNCCC(=O)Nc1sc2c(c1-c1nc3c(NS(C)(=O)=O)cccc3s1)CCNC2
1000 to 10000 | < 300 | COCCNCCC(=O)Nc1sc2c(c1-c1nc3ccc(-c4cncc(C)c4)cc3s1)CCNC2
1000 to 10000 | < 300 | COCCNCCC(=O)Nc1sc2c(c1-c1nc3cc(-c4c(C)nn(C)c4C)ccc3s1)CCNC2
< 300 | < 300 | COCCNCCC(=O)Nc1sc2c(c1-c1nc3ccccc3s1)CCN[C@@H]2C
300 to 1000 | < 300 | COCCNCCC(=O)Nc1sc2c(c1-c1nc3c(-n4ccnc4C)cccc3s1)CCNC2
300 to 1000 | < 300 | COCCNCCC(=O)Nc1sc2c(c1-c1nc3ccc(-c4cccc(S(N)(=O)=O)c4)cc3s1)CCNC2
300 to 1000 | 300 to 1000 | COCCNCCC(=O)Nc1sc2c(c1-c1nc3cc(-c4c[nH]nc4C)ccc3s1)CCNC2
1000 to 10000 | < 300 | COCCNCCC(=O)Nc1sc2c(c1-c1nc3cc(-c4ccc(OC)nc4)ccc3s1)CCNC2
300 to 1000 | < 300 | COCCNCCC(=O)Nc1sc2c(c1-c1nc3ccc(-c4ccc(F)nc4)cc3s1)CCNC2
300 to 1000 | < 300 | COCCNCCC(=O)Nc1sc2c(c1-c1nc3cc(-c4ccnc(OC)c4)ccc3s1)CCNC2
300 to 1000 | < 300 | COCCNCCC(=O)Nc1sc2c(c1-c1nc3cc(-c4cc(C)[nH]n4)ccc3s1)CCNC2
300 to 1000 | < 300 | COCCNCCC(=O)Nc1sc2c(c1-c1nc3cc(-c4cccc(S(C)(=O)=O)c4)ccc3s1)CCNC2
1000 to 10000 | < 300 | COCCNCCC(=O)Nc1sc2c(c1-c1nc3ccc(-c4ccnn4C)cc3s1)CCNC2

Further lines, the compound ahead of its results:

SMILES | IC50 [1] [nM] | IC50 (NCI-H2171) [nM]
CNS(=O)(=O)c1cccc(-c2ccc3nc(-c4c(NC(=O)CCNCCOC)sc5c4CCNC5)sc3c2)c1 | 300 to 1000 | < 300
CNS(=O)(=O)c1cccc(-c2ccc3sc(-c4c(NC(=O)CCNCCOC)sc5c4CCNC5)nc3c2)c1 | 300 to 1000 | < 300
COCCNCCC(=O)Nc1sc2c(c1-c1nc3ccc(-c4ccc(N5CCN(C)CC5)cc4)cc3s1)CCNC2 | < 300 | < 300
COCCNCCC(=O)Nc1sc2c(c1-c1nc3ccc(-c4cccc(C(=O)N(C)C)c4)cc3s1)CCNC2 | 300 to 1000 | < 300
CSc1ccc2sc(-c3c(NC(=O)CCNC(C)C)sc4c3CCNC4)nc2c1 | 300 to 1000 | < 300
COCCNCCC(=O)Nc1sc2c(c1-c1nc3ccc(-c4cccc(NS(C)(=O)=O)c4)cc3s1)CCNC2 | 300 to 1000 | < 300
COCCNCCC(=O)Nc1sc2c(c1-c1nc3cc(-c4cccc(S(N)(=O)=O)c4)ccc3s1)CCNC2 | 300 to 1000 | 300 to 1000
COCCNCCC(=O)Nc1sc2c(c1-c1nc3cc(-c4ccc(C(=O)N(C)C)cc4F)ccc3s1)CCNC2 | 300 to 1000 | < 300
COCCNCCC(=O)Nc1sc2c(c1-c1nc3cc(-c4ccc(N5CCN(C)CC5)cc4)ccc3s1)CCNC2 | 300 to 1000 | < 300
COCCNCCC(=O)Nc1sc2c(c1-c1nc3ccc(-c4ccnc(NC(C)=O)c4)cc3s1)CCNC2 | 300 to 1000 | < 300
COCCNCCC(=O)Nc1sc2c(c1-c1nc3ccc(-c4ccc5nc(N)ncc5c4)cc3s1)CCNC2 | > 10000 | < 300
COCCNCCC(=O)Nc1sc2c(c1-c1nc3cc(-c4ccnc(C(F)(F)F)c4)ccc3s1)CCNC2 | 300 to 1000 | < 300
CC(C)NCCC(=O)Nc1sc2c(c1-c1nc3cc(S(C)(=O)=O)ccc3s1)CCNC2 | < 300 | > 10000
COCCNCCC(=O)Nc1sc2c(c1-c1nc3cc(-c4cccc(NS(C)(=O)=O)c4)ccc3s1)CCNC2 | 1000 to 10000 | < 300
COCCNCCC(=O)Nc1sc2c(c1-c1nc3ccc(-c4cncc(C(F)(F)F)c4)cc3s1)CCNC2 | > 10000 | < 300
COCCNCCC(=O)Nc1sc2c(c1-c1nc3cc(-c4ccc(N5CCOCC5)nc4)ccc3s1)CCNC2 | 300 to 1000 | 300 to 1000
O=C(C[C@H]1CCCN1)Nc1sc2c(c1-c1nc3ccccc3s1)CCNC2 | 300 to 1000 | < 300
CC(C)NCCC(=O)Nc1sc2c(c1-c1nc3cc(O)ccc3s1)CCNC2 | < 300 | 300 to 1000
COCCNCCC(=O)Nc1sc2c(c1-c1nc3cc(-c4cnc(N)c(C(F)(F)F)c4)ccc3s1)CCNC2 | 1000 to 10000 | < 300
CC(=O)Nc1cccc2sc(-c3c(NC(=O)CCNC(C)C)sc4c3CCNC4)nc12 | 300 to 1000 | < 300
COCCNCCC(=O)Nc1sc2c(c1-c1nc3cc(-c4cncc(OCCOC)c4)ccc3s1)CCNC2 | 300 to 1000 | < 300
COCCNCCC(=O)Nc1sc2c(c1-c1nc3cc(-c4cnc(N5CCOCC5)nc4)ccc3s1)CCNC2 | 300 to 1000 | < 300
CSc1cccc2sc(-c3c(NC(=O)CCNC(C)C)sc4c3CCNC4)nc12 | 300 to 1000 | < 300
COCCNCCC(=O)Nc1sc2c(c1-c1nc3cc(-c4ccc(C(F)(F)F)nc4)ccc3s1)CCNC2 | 1000 to 10000 | < 300
COCCNCCC(=O)Nc1sc2c(c1-c1nc3cc(-c4ccc(OC(C)C)nc4)ccc3s1)CCNC2 | 1000 to 10000 | < 300
COCCNCCC(=O)Nc1sc2c(c1-c1nc3cc(-c4cncc(C(F)(F)F)c4)ccc3s1)CCNC2 | 300 to 1000 | < 300
CC(C)NCCC(=O)Nc1sc2c(c1-c1nc3cc(C4=CCN(S(=O)(=O)N(C)C)CC4)ccc3s1)CCNC2 | 300 to 1000 | < 300
CC(C)NCCC(=O)Nc1sc2c(c1-c1nc3cc(C4CC4)ccc3s1)CCNC2 | 300 to 1000 | < 300
O=C(C[C@@H]1CCCN1)Nc1sc2c(c1-c1nc3ccccc3s1)CCNC2 | 1000 to 10000 | < 300
CNC(=O)Nc1ccc(-c2ccc3nc(-c4c(NC(=O)CCNCCOC)sc5c4CCNC5)sc3c2)cc1 | 1000 to 10000 | < 300
